Activity calls are given as the source filed them. No cut-off for these calls is given here.
Tests used:
[1] = biological target: Kynurenine 3-monooxygenase (Rattus norvegicus) (UniProt O88867); test: Inhibition of kynurenine-3-hydroxylase in rat liver homogenates assessed as effect on production of 3-hydroxy kynurenine up to 125 uM incubated for 1 hr by HPLC; type: tissue-based
[2] = biological target: Kynurenine 3-monooxygenase (Rattus norvegicus) (UniProt O88867); test: (§1) Inhibition of kynurenine-3-hydroxylase in rat liver homogenates assessed as effect on production of 3-hydroxy kynurenine incubated for 1 hr by HPLC; type: tissue-based
[3] = biological target: Kynurenine 3-monooxygenase (Rattus norvegicus, UniProt O88867); test: as §1; type: tissue-based
Kynurenine 3-monooxygenase, sequence (O88867 whole entry): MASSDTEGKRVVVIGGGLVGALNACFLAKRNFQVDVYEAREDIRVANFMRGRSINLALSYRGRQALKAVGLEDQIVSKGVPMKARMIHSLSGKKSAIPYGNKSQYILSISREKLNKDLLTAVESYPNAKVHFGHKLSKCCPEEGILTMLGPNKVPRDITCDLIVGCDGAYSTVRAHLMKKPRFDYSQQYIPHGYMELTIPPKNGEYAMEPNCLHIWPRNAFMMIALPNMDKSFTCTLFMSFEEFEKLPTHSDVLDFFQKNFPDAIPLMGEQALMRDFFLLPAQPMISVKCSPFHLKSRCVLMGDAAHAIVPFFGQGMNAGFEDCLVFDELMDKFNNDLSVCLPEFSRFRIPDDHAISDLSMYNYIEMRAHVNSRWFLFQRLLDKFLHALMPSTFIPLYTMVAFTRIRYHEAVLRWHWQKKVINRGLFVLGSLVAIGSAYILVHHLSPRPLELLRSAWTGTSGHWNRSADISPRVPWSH

Rattus norvegicus [4] = test: Inhibition of kynurenine-3-hydroxylase in rat brain assessed as increase in Increase in extracellular kynurenic acid level at 200 mg/kg, ip coadministered with 100 mg/kg kynurenine by in-vivo microdialysis measured at 5 hrs post dose relative to untreated control; type: functional, organism-based
Rattus norvegicus [5] = test: Inhibition of kynurenine-3-hydroxylase in rat brain assessed as increase in Increase in extracellular kynurenic acid level at 200 mg/kg, ip coadministered with 100 mg/kg kynurenine by in-vivo microdialysis measured within 25 mins post dose relative to untreated control; type: functional, organism-based
Rattus norvegicus [6] = test: Inhibition of kynurenine-3-hydroxylase in rat brain assessed as increase in Increase in extracellular kynurenic acid level at 200 mg/kg, ip coadministered with 100 mg/kg kynurenine by in-vivo microdialysis measured up to 335 mins post dose relative to untreated control; type: functional
Rattus norvegicus [7] = test: Effect on extracellular kynurenic acid in rat brain dosed at 200 mg/kg, ip by in-vivo microdialysis measured for 6 hrs post dose (reference value: 1.55 +/- 0.05 pg/ml); type: functional; settings: route intraperitoneal
[8] = biological target: T1, Kynureninase (Rattus norvegicus) (UniProt P70712); test: Inhibition of kynureninase in rat liver homogenates assessed as effect on production of anthranilic acid up to 125 uM incubated for 30 mins by HPLC; type: tissue-based
T1 sequence (whole entry): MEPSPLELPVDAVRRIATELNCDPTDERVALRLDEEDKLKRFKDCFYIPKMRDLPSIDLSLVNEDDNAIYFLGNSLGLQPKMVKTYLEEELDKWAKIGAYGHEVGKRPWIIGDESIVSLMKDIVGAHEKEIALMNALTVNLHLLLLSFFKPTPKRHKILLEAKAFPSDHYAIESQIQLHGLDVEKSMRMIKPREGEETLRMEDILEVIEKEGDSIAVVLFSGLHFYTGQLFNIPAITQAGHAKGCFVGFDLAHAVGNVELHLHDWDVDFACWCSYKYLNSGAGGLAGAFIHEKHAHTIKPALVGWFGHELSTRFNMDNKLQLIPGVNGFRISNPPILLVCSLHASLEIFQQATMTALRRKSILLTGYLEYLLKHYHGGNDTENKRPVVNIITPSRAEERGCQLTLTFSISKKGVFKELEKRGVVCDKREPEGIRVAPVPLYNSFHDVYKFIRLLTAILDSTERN

Rattus norvegicus [9] = test: Inhibition of kynurenine-3-hydroxylase in rat brain assessed as increase in Increase in extracellular kynurenic acid level at 200 mg/kg, ip coadministered with 100 mg/kg kynurenine by in-vivo microdialysis measured at 135 mins post dose relative to untreated control; type: functional, organism-based
[10] = biological target: T1, Kynureninase (Rattus norvegicus); test: Inhibition of kynureninase in rat liver homogenates assessed as effect on production of anthranilic acid at >125 uM incubated for 30 mins by HPLC; type: tissue-based

Kynurenine 3-monooxygenase (Rattus norvegicus), sequence (O88867 whole entry, looked up): as the sequence (O88867 whole entry) above

- inhibition [1]: Active
- inhibition [2]: Dose-dependent effect
- IC50 [3]: 1500 nM
- inhibition [8]: inactive
- inhibition [10]: Active
Structure (SMILES): CC(=O)NCCCO[C@@H](CN)c1cc(Br)c(OS(=O)(=O)O)c(Br)c1 [IANTHELLAMIDE A]
- Activity (Rattus norvegicus [4]): Active
- Activity (Rattus norvegicus [5]): Active
- fold change (FC) (Rattus norvegicus [6]): 20
- Activity (Rattus norvegicus [7]): 1.72 pg/µL
- Activity (Rattus norvegicus [9]): Active

— ChEMBL document CHEMBL2021881, “Ianthellamide A, a selective kynurenine-3-hydroxylase inhibitor from the Australian marine sponge Ianthella quadrangulata” (Bioorg Med Chem Lett, 2012)
